# Columns and labels:
# [1] = Apparent oral clearance in pulmonary tuberculosis patient in first order and lag time model; assay type: ADME, organism-based; details: human, in vivo
# [2] = tested on: Homo sapiens; assay: AUC (0 to 12 hrs) in kenyan pulmonary tuberculosis patient coinjected with HIV with body weight >45 kg at 600 mg/day, po; assay type: ADME, organism-based, Plasma; parameters: time < 12 hr, dose 600 mg/day, route oral; details: in vivo
# [3] = tested on: Homo sapiens; assay: AUC (0 to 12 hrs) in german pulmonary tuberculosis patient at 600 mg/day, po; assay type: ADME, organism-based, Plasma; parameters: dose 600 mg/day, time < 12 hr, route oral; details: in vivo
# [4] = Apparent oral clearance in pulmonary tuberculosis patient in first order model; assay type: ADME, organism-based; details: human, in vivo
# [5] = tested on: Homo sapiens; assay: AUC (0 to 10 hrs) in north american pulmonary tuberculosis patient coinjected with HIV with body weight <=50 kg at 450 mg/day, po; assay type: ADME, organism-based, Plasma; parameters: time < 10 hr, dose 450 mg/day, route oral; details: in vivo
# [6] = species on record: Homo sapiens; assay: Absorption rate constant in pulmonary tuberculosis patient in first order model; assay type: ADME, organism-based; details: in vivo
# [7] = tested on: Homo sapiens; assay: AUC (0 to 24 hrs) in indonesian pulmonary tuberculosis patient at 450 mg/day, po; assay type: ADME, organism-based, Plasma; parameters: dose 450 mg/day, time < 24 hr, route oral; details: in vivo
# [8] = tested on: Homo sapiens; assay: AUC (0 to infinity) in indian pulmonary tuberculosis patient coinjected with HIV at 450 mg/day, po; assay type: ADME, organism-based, Plasma; parameters: dose 450 mg/day, time infinity, route oral; details: in vivo
# [9] = Apparent volume of distribution in pulmonary tuberculosis patient in Sequential 0 order and first order model; assay type: ADME, organism-based; details: human, in vivo; read-out: Vz
# [10] = Apparent oral clearance in pulmonary tuberculosis patient in Sequential 0 order and first order model; assay type: ADME, organism-based; details: human, in vivo
# [11] = Apparent volume of distribution in pulmonary tuberculosis patient in first order and lag time model; assay type: ADME, organism-based; details: human, in vivo; read-out: Vz
# [12] = Apparent volume of distribution in pulmonary tuberculosis patient in first order model; assay type: ADME, organism-based; details: human, in vivo; read-out: Vz
# [13] = tested on: Homo sapiens; assay: AUC (0 to 24 hrs) in indonesian pulmonary tuberculosis patient at 600 mg/day, po; assay type: ADME, organism-based, Plasma; parameters: time < 24 hr, dose 600 mg/day, route oral; details: in vivo
# [14] = Apparent volume of distribution in pulmonary tuberculosis patient in transit compartment model; assay type: ADME, organism-based; details: human, in vivo; read-out: Vz
# [15] = tested on: Homo sapiens; assay: AUC (0 to 10 hrs) in north american pulmonary tuberculosis patient coinjected with HIV with body weight >50 kg at 600 mg/day, po; assay type: ADME, organism-based, Plasma; parameters: time < 10 hr, dose 600 mg/day, route oral; details: in vivo
# [16] = species on record: Homo sapiens; assay: Absorption rate constant in pulmonary tuberculosis patient in Sequential 0 order and first order model; assay type: ADME, organism-based; details: in vivo
# [17] = species on record: Homo sapiens; assay: Mean transient time in pulmonary tuberculosis patient in transit compartment model; assay type: ADME, organism-based; details: in vivo
# [18] = tested on: Homo sapiens; assay: AUC (0 to 12 hrs) in kenyan pulmonary tuberculosis patient with body weight <=45 kg at 450 mg/day, po; assay type: ADME, organism-based, Plasma; parameters: time < 12 hr, dose 450 mg/day, route oral; details: in vivo
# [19] = tested on: Homo sapiens; assay: AUC (0 to 12 hrs) in kenyan pulmonary tuberculosis patient with body weight >45 kg at 600 mg/day, po; assay type: ADME, organism-based, Plasma; parameters: dose 600 mg/day, time < 12 hr, route oral; details: in vivo
# [20] = tested on: Homo sapiens; assay: AUC (0 to 24 hrs) in south african pulmonary tuberculosis patient with body weight >50 kg at 600 mg/day, po; assay type: ADME, organism-based, Plasma; parameters: time < 24 hr, dose 600 mg/day, route oral; details: in vivo
# [21] = species on record: Homo sapiens; assay: Absorption rate constant in pulmonary tuberculosis patient in first order and lag time model; assay type: ADME, organism-based; details: in vivo
# [22] = species on record: Homo sapiens; assay: Absorption rate constant in pulmonary tuberculosis patient in transit compartment model; assay type: ADME, organism-based; details: in vivo
# [23] = tested on: Homo sapiens; assay: AUC (0 to 24 hrs) in south african pulmonary tuberculosis patient with body weight <=50 kg at 450 mg/day, po; assay type: ADME, organism-based, Plasma; parameters: time < 24 hr, dose 450 mg/day, route oral; details: in vivo
# [24] = Apparent oral clearance in pulmonary tuberculosis patient in transit compartment model; assay type: ADME, organism-based; details: human, in vivo
# [25] = tested on: Homo sapiens; assay: AUC (0 to infinity) in indian pulmonary tuberculosis patient at 450 mg/day, po; assay type: ADME, organism-based, Plasma; parameters: dose 450 mg/day, route oral, time infinity; details: in vivo
# [26] = tested on: Homo sapiens; assay: AUC (0 to 12 hrs) in kenyan pulmonary tuberculosis patient coinjected with HIV with body weight <=45 kg at 450 mg/day, po; assay type: ADME, organism-based, Plasma; parameters: time < 12 hr, dose 450 mg/day, route oral; details: in vivo
compound,measurement,setting,value
CO[C@H]1/C=C/O[C@@]2(C)Oc3c(C)c(O)c4c(O)c(c(/C=N/N5CCN(C)CC5)c(O)c4c3C2=O)NC(=O)/C(C)=C\C=C\[C@H](C)[C@H](O)[C@@H](C)[C@@H](O)[C@@H](C)[C@H](OC(C)=O)[C@@H]1C [RIFAMPIN],CL/F,[1],337 mL/min
same,AUC,[2],19600 ng·h/mL
same,AUC,[3],60300 ng·h/mL
same,CL/F,[4],323 mL/min
same,AUC,[5],30100 ng·h/mL
same,Ka,[6],1.61 L/h
same,AUC,[7],48500 ng·h/mL
same,AUC,[8],28200 ng·h/mL
same,Vd,[9],51.5 L
same,CL/F,[10],320 mL/min
same,Vd,[11],53.4 L
same,Vd,[12],52.8 L
same,AUC,[13],79700 ng·h/mL
same,Vd,[14],53.2 L
same,AUC,[15],30100 ng·h/mL
same,Ka,[16],1.23 L/h
same,MTT,[17],0.424 h
same,AUC,[18],23100 ng·h/mL
same,AUC,[19],23100 ng·h/mL
same,AUC,[20],30700 ng·h/mL
same,Ka,[21],1.64 L/h
same,Ka,[22],1.15 L/h
same,AUC,[23],30700 ng·h/mL
same,CL/F,[24],320 mL/min
same,AUC,[25],44600 ng·h/mL
same,AUC,[26],19600 ng·h/mL
